Assays:
Assay in all cases: relative viability (nuclei count vs DMSO), 5 days (fraction); higher = more cells survive
GSK-J4 + Vorinostat = compound: CCOC(=O)CCNc1cc(N2CCc3ccccc3CC2)nc(-c2ccccn2)n1 [GSK-J4] + O=C(CCCCCCC(=O)Nc1ccccc1)NO [Vorinostat] (partner 1 µM)
How it was run: (§1)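 Nuclei were stained with Hoechst during a one-step fixation (final 0.05% Triton X-100, 1% formaldehyde, 1 ug/ml Hoechst) carried out 5 days after dosing, then counted on 4× images. The cells, lung cancer lines in 1536-well plates, had been dosed by pin tool the day after seeding with one drug alone or a fixed anchor-drug dose plus five library-drug doses (not always all listed) in √10 steps. Relative viability is the nuclei count in treated wells divided by that in vehicle wells, and each value is the median of duplicate plates.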

AZ3146 + Luminespib = compound: CN1CCC(CC1)OC2=CC(=C(C=C2)NC3=NC=C4C(=N3)N(C(=O)N4C)C5CCCC5)OC [AZ3146] + CCNC(=O)c1noc(-c2cc(C(C)C)c(O)cc2O)c1-c1ccc(CN2CCOCC2)cc1 [Luminespib] (partner 0.01 µM)
How it was run: as §1

AZ3146 + Tozasertib = compound: CN1CCC(CC1)OC2=CC(=C(C=C2)NC3=NC=C4C(=N3)N(C(=O)N4C)C5CCCC5)OC [AZ3146] + Cc1cc(Nc2cc(N3CCN(C)CC3)nc(Sc3ccc(NC(=O)C4CC4)cc3)n2)n[nH]1 [Tozasertib] (partner 0.1 µM)
How it was run: as §1

AZ3146 + Olaparib = compound: CN1CCC(CC1)OC2=CC(=C(C=C2)NC3=NC=C4C(=N3)N(C(=O)N4C)C5CCCC5)OC [AZ3146] + O=C(c1cc(Cc2n[nH]c(=O)c3ccccc23)ccc1F)N1CCN(C(=O)C2CC2)CC1 [Olaparib] (partner 8 µM)
How it was run: as §1

| Cell Line | relative viability (GSK-J4 + Vorinostat; first compound 0.5 µM) | relative viability (GSK-J4 + Vorinostat; first compound 1.581 µM) | relative viability (GSK-J4 + Vorinostat; first compound 15.81 µM) | relative viability (GSK-J4 + Vorinostat; first compound 50 µM) | relative viability (AZ3146 + Luminespib; first compound 0.08 µM) | relative viability (AZ3146 + Luminespib; first compound 0.253 µM) | relative viability (AZ3146 + Luminespib; first compound 0.8 µM) | relative viability (AZ3146 + Luminespib; first compound 2.53 µM) | relative viability (AZ3146 + Luminespib; first compound 8 µM) | relative viability (AZ3146 + Tozasertib; first compound 0.08 µM) | relative viability (AZ3146 + Tozasertib; first compound 0.253 µM) | relative viability (AZ3146 + Tozasertib; first compound 0.8 µM) | relative viability (AZ3146 + Tozasertib; first compound 2.53 µM) | relative viability (AZ3146 + Tozasertib; first compound 8 µM) | relative viability (AZ3146 + Olaparib; first compound 0.08 µM) | relative viability (AZ3146 + Olaparib; first compound 0.253 µM) | relative viability (AZ3146 + Olaparib; first compound 0.8 µM) | relative viability (AZ3146 + Olaparib; first compound 2.53 µM) | relative viability (AZ3146 + Olaparib; first compound 8 µM) | relative viability (GSK-J4 + Vorinostat; first compound 5 µM) |
| --- | --- | --- | --- | --- | --- | --- | --- | --- | --- | --- | --- | --- | --- | --- | --- | --- | --- | --- | --- | --- |
| NCI-H522 | 0.931 | 0.725 | 0.651 | 0.862 | 1.1 | 1.03 | 1.2 | 1.13 | 1.18 | 0.533 | 0.512 | 0.582 | 0.455 | 0.587 | 0.68 | 0.685 | 0.515 | 0.695 | 0.596 | – |
| HCC-366 | 0.284 | 0.287 | 0.285 | 0.34 | – | – | – | – | – | 0.0936 | 0.1 | 0.0606 | 0.044 | 0.0336 | 0.304 | 0.388 | 0.401 | 0.399 | 0.302 | – |
| A-427 | 0.814 | 0.518 | 0.785 | 0.393 | 0.819 | 0.895 | 0.913 | 0.879 | 0.818 | 0.2 | 0.191 | 0.157 | 0.19 | 0.205 | 0.689 | 0.813 | 0.758 | 0.794 | 0.652 | – |
| NCI-H2347 | 0.605 | 0.558 | 0.518 | 0.538 | 0.375 | 0.298 | 0.551 | 0.53 | 0.644 | 0.399 | 0.529 | 0.461 | 0.744 | 0.464 | 0.587 | 0.354 | 0.562 | 0.49 | 0.612 | 0.586 |
| NCI-H1792 | – | – | – | – | 0.345 | 0.478 | 0.571 | 0.435 | 0.431 | – | – | – | – | – | 0.351 | 0.522 | 0.384 | 0.42 | 0.434 | – |
| SK-LU-1 | 0.751 | 0.679 | 0.58 | 0.578 | 0.216 | 0.206 | 0.231 | 0.252 | 0.231 | 0.354 | 0.293 | 0.279 | 0.3 | 0.216 | 0.452 | 0.496 | 0.414 | 0.445 | 0.441 | 0.626 |
| RERF-LC-KJ | 0.679 | 0.534 | 0.613 | 0.485 | 1.15 | 1.2 | 1.22 | 1.29 | 0.668 | 0.465 | 0.497 | 0.403 | 0.294 | 0.25 | 0.94 | 0.833 | 0.902 | 0.852 | 0.462 | 0.576 |
| NCI-H1993 | 1.15 | 0.708 | 0.601 | 0.409 | 0.86 | 0.92 | 0.911 | 1.06 | 1.02 | 0.544 | 0.548 | 0.6 | 0.544 | 0.51 | 1 | 1.12 | 1.12 | 1.04 | 1.06 | 0.804 |
| NCI-H1734 | 0.749 | 0.788 | 0.645 | 0.5 | 0.181 | 0.198 | 0.689 | 0.198 | 0.2 | 0.225 | 0.264 | 0.279 | 0.275 | 0.29 | 0.58 | 0.61 | 0.632 | 0.607 | 0.612 | 0.609 |
| HCC-44 | 1.01 | 1.09 | 1.14 | 1.16 | 0.884 | 1.02 | 1.17 | 1.02 | 0.999 | 0.502 | 0.944 | 0.904 | 0.372 | 0.315 | 0.996 | 0.991 | 1.06 | 0.964 | 0.942 | 1.09 |
| NCI-H1944 | 0.566 | 0.477 | 0.419 | 0.427 | 0.617 | 0.786 | 0.777 | 0.906 | 1.06 | 0.219 | 0.241 | 0.246 | 0.235 | 0.224 | 0.36 | 0.391 | 0.408 | 0.475 | 0.473 | – |
| HCC-78 | 0.462 | 0.435 | 0.363 | 0.587 | – | – | – | – | – | 0.315 | 0.449 | 0.347 | 0.404 | 0.44 | – | 0.863 | 0.765 | 0.767 | 0.798 | 0.601 |
| NCI-H838 | 0.721 | 0.717 | 0.695 | 0.57 | 0.31 | 0.284 | 0.281 | 0.273 | 0.264 | 0.249 | 0.252 | 0.254 | 0.263 | 0.183 | 0.771 | 0.769 | 0.766 | 0.724 | 0.253 | 0.401 |
| SW 1573 | 0.817 | 0.396 | 0.845 | 0.276 | 0.699 | 0.14 | 0.393 | 0.204 | 0.273 | 0.208 | 0.162 | 0.179 | 0.164 | 0.195 | 0.569 | 0.507 | 0.575 | 0.374 | 0.227 | 0.406 |
| NCI-H1623 | – | – | – | – | 0.486 | 0.591 | 0.612 | 0.604 | 0.556 | 0.46 | 0.404 | 0.461 | 0.481 | 0.4 | – | – | – | – | – | – |
| ChaGo-K-1 | 0.785 | – | 0.673 | 0.668 | 0.651 | 0.528 | 0.618 | 0.816 | 0.588 | 0.192 | 0.229 | 0.22 | 0.235 | 0.206 | 0.352 | 0.436 | 0.361 | 0.421 | 0.357 | 0.619 |
| LCLC-97TM1 | 0.684 | 0.442 | 0.507 | 0.578 | 0.825 | 0.673 | 0.647 | 0.814 | 0.878 | 0.206 | 0.216 | 0.208 | 0.228 | 0.146 | 0.52 | 0.535 | 0.458 | 0.447 | 0.345 | 0.681 |

From the supplement of paper PMC10307832
